# In patent publication US9073974B2, “RGD-containing cyclic peptides” (The Regents of the University of California, priority 2009, dated 2015):
# “Also recorded” adds a separate entry of the source. Bridge positions count the residues as written; N and C are the ends. Square brackets hold non-standard residues; d marks the D form. Peptide text beside a SMILES is read from it.
# Key:
# αvβ3 = target: T1, αvβ3 (Homo sapiens, UniProt P05106+P06756); test: Staining of αvβ3 transfected K562 cells with biotinylated peptide and streptavidin-PE (flow cytometry); type: binding; details: 1 μM biotinylated peptide, Streptavidin-PE
# T1 construct: expressed in transfected cells; host or cells: K562 (gift of Dr. Yoshikazu Takada, UC Davis)
# Experimental: (§1) After one time wash, samples were tested. […] Then the specific binding equaled to substraction of nonspecific binding from total binding and Kds were analyzed.
# (§2) To test the specificity of LXW7, LXW7 was prepared in biotinylated form and incubated with α1, α2, α3, α4, α6, α9, αIIbβ3 and αvβ3 transfected K562 and parent K562 cells (α5β1), followed by incubation with streptavidin-PE. […] The binding affinities of LXW7 and these cyclic RGD pentapeptides against αvβ3 integrin were compared based on their ability to inhibit FITC-Echistatin binding with αvβ3-K562.
# α4 = target: T2, α4 (Homo sapiens, UniProt P05556+P13612); test: Staining of α4 transfected K562 cells with biotinylated peptide and streptavidin-PE (flow cytometry); type: binding; details: 1 μM LXW7-Bio, Streptavidin-PE
# T2 construct: expressed in transfected cells; host or cells: K562 (gift of Dr. Yoshikazu Takada)
# Experimental: as §1, §2
# α1 = target: T3, α1 (Homo sapiens, UniProt P56199); test: Staining of α1 transfected K562 cells with biotinylated peptide and streptavidin-PE (flow cytometry); type: binding; details: 1 μM LXW7-Bio, Streptavidin-PE
# T3 construct: expressed in transfected cells; host or cells: K562 (gift of Dr. Yoshikazu Takada)
# Experimental: as §1, §2
# α6 = target: T4, α6 (Homo sapiens, UniProt P05556+P23229); test: Staining of α6 transfected K562 cells with biotinylated peptide and streptavidin-PE (flow cytometry); type: binding; details: 1 μM LXW7-Bio, Streptavidin-PE
# T4 construct: expressed in transfected cells; host or cells: K562 (gift of Dr. Yoshikazu Takada)
# Experimental: as §1, §2
# αvβ3 integrin [1] = target: T5, αvβ3 integrin (Homo sapiens, UniProt P05106+P06756); test: Inhibition of biotinylated LXW7 binding to αvβ3-K562 cells (flow cytometry); parameters: expressed in transfected cells; host or cells: K562 (gift of Dr. Yoshikazu Takada, UC Davis); details: LXW9-92: inhibiting the binding of biotinylated LXW7 against αvβ3-K562 cells, LXW7 as internal reference
# Experimental: The apparent IC50 were calculated using Graph Prism software (≦www.graphpad.com≧).
# (§3) The samples were analyzed with Coulter XL-MCL flow cytometry. The histogram and mean fluorescence intensity (MFI) were determined. The apparent Kd, IC50 were calculated using Graph Prism software (≦www.graphpad.com≧).
# αIIbβ3 = target: T6, αIIbβ3 (Homo sapiens, UniProt P05106+P08514); test: Staining of αIIbβ3 transfected K562 cells with biotinylated peptide and streptavidin-PE (flow cytometry); type: binding; details: 1 μM biotinylated peptide, Streptavidin-PE
# T6 construct: expressed in transfected cells; host or cells: K562 (gift of Dr. Jennifer Cochran and Dr. Scott D. Blystone)
# Experimental: as §1, §2
# U-87 MG xenograft = test: In vivo and ex vivo near infra red fluorescent imaging, U-87 MG xenograft; parameters: species or system nude mice; details: complex of Streptavidin-Cy5.5 with biotinylated peptide, 6 hrs after tail vein injection
# Experimental: Animal studies were performed according to a protocol approved by IACUC of the University of California, Davis.
# Animals were placed on a sheet of transparency in different position. […] Images were captured with a CCD camera set at F stop=0, FOV=150, and FP=0. Six hours post injection of imaging complex, the mice were conducted in vivo imaging, then were sacrificed and organs were excised for ex vivo imaging.
# α9 = target: T7, α9 (Homo sapiens, UniProt P05556+Q13797); test: Staining of α9 transfected K562 cells with biotinylated peptide and streptavidin-PE (flow cytometry); type: binding; details: 1 μM LXW7-Bio, Streptavidin-PE
# T7 construct: expressed in transfected cells; host or cells: K562 (gift of Dr. Yoshikazu Takada)
# Experimental: as §1, §2
# αvβ3 integrin [2] = target: T5, αvβ3 integrin; test: Equilibrium binding and antibody blocking of LXW7-Bio on U-87 MG glioblastoma cells (flow cytometry); parameters: host or cells: U-87MG (A5)
# Experimental: as §1, §3
# α3 = target: T8, α3 (Homo sapiens, UniProt P05556+P26006); test: Staining of α3 transfected K562 cells with biotinylated peptide and streptavidin-PE (flow cytometry); type: binding; details: 1 μM LXW7-Bio, Streptavidin-PE
# T8 construct: expressed in transfected cells; host or cells: K562 (gift of Dr. Yoshikazu Takada)
# Experimental: as §1, §2
# αvβ3 integrin [3] = target: T5, αvβ3 integrin; test: Equilibrium binding of LXW7-Bio to αvβ3-K562 cells (flow cytometry); parameters: expressed in transfected cells; host or cells: K562 (gift of Dr. Yoshikazu Takada, UC Davis)
# Experimental: as §1, §3
# α5β1 = target: T9, α5β1 (Homo sapiens, UniProt P05556+P08648); test: Staining of parent K562 cells (α5β1) with biotinylated peptide and streptavidin-PE (flow cytometry); type: binding; details: 1 μM biotinylated peptide, Streptavidin-PE
# T9 construct: host or cells: parent (non-transfected) K562
# Experimental: as §1, §2
# αvβ3 integrin [4] = target: T5, αvβ3 integrin; test: Equilibrium binding and antibody blocking of LXW7-Bio on A375M melanoma cells (flow cytometry); parameters: host or cells: A375M (A4); U-87MG (A5)
# Experimental: as §1, §3
# α2 = target: T10, α2 (Homo sapiens, UniProt P17301); test: Staining of α2 transfected K562 cells with biotinylated peptide and streptavidin-PE (flow cytometry); type: binding; details: 1 μM LXW7-Bio, Streptavidin-PE
# T10 construct: expressed in transfected cells; host or cells: K562 (gift of Dr. Yoshikazu Takada)
# Experimental: as §1, §2
# αvβ3 integrin [5] = target: T5, αvβ3 integrin; test: Inhibition of FITC-Echistatin binding to αvβ3-K562 cells (flow cytometry); parameters: expressed in transfected cells; host or cells: K562 (gift of Dr. Yoshikazu Takada, UC Davis)
# Experimental: as §3
# [6] = 10 μg LM609 premixed with 1 μM LXW7-Bio
# T5 sequence (P06756 31-889 limits assumed): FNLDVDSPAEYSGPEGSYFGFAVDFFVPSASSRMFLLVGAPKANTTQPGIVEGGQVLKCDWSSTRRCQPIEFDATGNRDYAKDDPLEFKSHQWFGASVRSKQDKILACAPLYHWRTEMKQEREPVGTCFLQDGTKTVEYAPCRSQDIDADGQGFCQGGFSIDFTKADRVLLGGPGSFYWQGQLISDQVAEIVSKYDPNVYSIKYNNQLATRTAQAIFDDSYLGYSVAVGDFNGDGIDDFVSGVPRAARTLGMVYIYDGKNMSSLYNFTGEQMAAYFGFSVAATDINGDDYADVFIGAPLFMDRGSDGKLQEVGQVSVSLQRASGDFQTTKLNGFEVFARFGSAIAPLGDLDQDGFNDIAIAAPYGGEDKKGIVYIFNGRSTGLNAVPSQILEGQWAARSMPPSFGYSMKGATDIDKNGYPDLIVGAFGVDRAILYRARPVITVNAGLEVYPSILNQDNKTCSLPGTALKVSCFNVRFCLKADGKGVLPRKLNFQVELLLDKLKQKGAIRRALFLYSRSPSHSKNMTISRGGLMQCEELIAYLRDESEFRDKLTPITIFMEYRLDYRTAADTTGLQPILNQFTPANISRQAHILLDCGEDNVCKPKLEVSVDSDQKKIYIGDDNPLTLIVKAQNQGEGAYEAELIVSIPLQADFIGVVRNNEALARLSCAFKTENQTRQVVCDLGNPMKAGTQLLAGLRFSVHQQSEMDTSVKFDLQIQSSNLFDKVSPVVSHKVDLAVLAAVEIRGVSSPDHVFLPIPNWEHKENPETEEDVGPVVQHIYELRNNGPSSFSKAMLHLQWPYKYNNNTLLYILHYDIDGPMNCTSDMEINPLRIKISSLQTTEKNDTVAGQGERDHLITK
# T5 sequence (P06756 891-1048 partner limits assumed): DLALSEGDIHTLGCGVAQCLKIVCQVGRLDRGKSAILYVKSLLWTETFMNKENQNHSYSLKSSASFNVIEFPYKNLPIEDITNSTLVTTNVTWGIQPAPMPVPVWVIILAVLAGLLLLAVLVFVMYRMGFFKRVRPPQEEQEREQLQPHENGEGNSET
# T5 sequence (P05106 27-788): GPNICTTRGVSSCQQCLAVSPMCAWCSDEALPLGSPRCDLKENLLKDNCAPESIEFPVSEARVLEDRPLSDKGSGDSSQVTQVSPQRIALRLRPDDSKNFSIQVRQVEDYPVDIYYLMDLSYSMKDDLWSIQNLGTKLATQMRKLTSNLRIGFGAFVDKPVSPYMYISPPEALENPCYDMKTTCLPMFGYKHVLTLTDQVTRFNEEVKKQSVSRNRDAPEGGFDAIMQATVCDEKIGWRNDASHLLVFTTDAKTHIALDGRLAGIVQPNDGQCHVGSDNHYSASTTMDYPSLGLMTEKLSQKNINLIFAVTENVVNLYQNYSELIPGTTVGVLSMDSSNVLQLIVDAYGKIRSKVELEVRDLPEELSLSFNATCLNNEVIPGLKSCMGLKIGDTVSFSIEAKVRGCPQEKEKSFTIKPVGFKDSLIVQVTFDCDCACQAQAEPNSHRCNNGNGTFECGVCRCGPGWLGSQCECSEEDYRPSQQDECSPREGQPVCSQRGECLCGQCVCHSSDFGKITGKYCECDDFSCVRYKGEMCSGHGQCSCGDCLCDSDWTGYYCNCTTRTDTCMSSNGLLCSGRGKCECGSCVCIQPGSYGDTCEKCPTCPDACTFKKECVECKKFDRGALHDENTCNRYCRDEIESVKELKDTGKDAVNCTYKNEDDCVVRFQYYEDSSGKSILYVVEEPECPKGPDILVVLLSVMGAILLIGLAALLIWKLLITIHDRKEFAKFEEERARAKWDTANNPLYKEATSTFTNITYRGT
# T3 sequence (P56199 29-1179): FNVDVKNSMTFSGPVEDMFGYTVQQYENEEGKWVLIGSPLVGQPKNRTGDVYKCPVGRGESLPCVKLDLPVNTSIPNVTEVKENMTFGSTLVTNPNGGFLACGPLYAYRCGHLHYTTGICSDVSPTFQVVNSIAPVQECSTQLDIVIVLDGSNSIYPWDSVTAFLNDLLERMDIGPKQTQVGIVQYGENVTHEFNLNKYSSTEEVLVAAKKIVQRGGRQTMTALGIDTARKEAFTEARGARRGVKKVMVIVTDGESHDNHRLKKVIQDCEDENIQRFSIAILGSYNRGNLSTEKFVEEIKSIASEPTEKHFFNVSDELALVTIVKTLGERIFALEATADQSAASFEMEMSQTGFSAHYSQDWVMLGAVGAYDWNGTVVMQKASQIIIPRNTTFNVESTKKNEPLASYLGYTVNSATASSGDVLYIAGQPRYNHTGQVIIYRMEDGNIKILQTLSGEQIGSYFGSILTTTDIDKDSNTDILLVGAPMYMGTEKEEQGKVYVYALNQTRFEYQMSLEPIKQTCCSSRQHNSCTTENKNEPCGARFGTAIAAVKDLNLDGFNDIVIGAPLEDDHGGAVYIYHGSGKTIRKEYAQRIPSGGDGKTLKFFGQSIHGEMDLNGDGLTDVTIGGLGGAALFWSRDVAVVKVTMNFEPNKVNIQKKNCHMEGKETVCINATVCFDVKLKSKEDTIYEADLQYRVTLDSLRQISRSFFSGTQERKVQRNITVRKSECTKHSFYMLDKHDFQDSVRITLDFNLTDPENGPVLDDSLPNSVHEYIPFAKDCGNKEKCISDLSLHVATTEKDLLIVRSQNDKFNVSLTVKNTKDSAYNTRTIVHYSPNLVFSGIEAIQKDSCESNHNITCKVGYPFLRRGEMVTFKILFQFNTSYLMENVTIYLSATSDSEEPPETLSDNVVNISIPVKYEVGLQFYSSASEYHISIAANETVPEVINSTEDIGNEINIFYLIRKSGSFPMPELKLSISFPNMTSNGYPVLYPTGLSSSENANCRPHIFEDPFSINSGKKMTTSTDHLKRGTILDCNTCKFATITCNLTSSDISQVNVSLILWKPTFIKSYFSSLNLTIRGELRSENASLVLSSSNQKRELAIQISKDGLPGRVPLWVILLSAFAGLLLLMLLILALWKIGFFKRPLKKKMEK
# T3 sequence (P05556 21-798 partner): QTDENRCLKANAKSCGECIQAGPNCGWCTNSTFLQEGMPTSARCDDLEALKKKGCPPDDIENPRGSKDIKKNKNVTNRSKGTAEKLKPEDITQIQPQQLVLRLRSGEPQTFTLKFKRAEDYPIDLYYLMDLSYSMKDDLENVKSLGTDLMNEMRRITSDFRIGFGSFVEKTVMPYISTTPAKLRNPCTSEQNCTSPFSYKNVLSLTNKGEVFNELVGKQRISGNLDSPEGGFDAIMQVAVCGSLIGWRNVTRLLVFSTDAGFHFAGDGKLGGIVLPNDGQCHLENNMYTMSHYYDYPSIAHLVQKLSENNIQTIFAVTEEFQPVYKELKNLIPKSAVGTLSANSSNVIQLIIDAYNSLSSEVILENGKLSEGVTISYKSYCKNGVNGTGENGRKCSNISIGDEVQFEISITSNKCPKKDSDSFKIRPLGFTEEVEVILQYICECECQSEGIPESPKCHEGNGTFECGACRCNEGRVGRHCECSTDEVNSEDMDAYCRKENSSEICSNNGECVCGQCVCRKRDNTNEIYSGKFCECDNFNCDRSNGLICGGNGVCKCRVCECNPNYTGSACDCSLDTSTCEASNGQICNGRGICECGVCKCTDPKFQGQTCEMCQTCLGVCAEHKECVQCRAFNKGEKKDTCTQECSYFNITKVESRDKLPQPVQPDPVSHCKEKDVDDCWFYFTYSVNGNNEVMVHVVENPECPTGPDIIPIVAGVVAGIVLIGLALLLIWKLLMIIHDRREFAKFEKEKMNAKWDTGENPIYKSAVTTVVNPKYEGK
# T8 sequence (P26006 33-872 limits assumed): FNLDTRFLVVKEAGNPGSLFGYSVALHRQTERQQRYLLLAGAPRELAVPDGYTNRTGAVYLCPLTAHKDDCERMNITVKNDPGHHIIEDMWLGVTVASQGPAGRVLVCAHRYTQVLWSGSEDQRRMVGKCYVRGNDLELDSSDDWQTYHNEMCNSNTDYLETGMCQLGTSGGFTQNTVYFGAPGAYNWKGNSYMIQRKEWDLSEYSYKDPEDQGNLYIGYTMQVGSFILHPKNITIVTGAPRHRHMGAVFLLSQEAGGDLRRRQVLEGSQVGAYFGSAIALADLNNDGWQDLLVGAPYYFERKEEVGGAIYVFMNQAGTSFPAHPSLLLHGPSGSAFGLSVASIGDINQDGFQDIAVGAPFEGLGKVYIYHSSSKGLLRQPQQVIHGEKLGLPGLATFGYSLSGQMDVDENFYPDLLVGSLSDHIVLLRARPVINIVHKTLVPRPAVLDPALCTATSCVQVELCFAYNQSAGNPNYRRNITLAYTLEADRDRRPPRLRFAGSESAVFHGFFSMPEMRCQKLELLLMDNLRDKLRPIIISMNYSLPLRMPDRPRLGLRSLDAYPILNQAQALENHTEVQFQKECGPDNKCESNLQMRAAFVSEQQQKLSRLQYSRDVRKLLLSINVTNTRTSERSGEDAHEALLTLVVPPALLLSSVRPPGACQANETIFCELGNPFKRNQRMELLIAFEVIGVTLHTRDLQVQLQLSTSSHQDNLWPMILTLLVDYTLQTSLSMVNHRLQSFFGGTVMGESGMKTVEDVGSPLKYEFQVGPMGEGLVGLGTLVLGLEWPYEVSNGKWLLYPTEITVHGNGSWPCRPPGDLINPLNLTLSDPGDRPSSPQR
# T8 sequence (P26006 873-1051 partner limits assumed): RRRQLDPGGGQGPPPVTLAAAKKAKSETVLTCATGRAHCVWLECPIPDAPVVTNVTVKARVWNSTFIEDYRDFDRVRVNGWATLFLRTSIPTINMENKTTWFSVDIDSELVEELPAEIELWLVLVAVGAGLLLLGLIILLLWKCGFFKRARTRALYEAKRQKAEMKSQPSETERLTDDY
# T8 sequence (P05556 21-798): as the sequence (P05556 21-798 partner) above
# T1 sequence (P06756 31-889 limits assumed): as the sequence (P06756 31-889 limits assumed) above
# T1 sequence (P06756 891-1048 partner limits assumed): as the sequence (P06756 891-1048 partner limits assumed) above
# T1 sequence (P05106 27-788): as the sequence (P05106 27-788) above
smiles,measurement,setting,value
"CC(C)[C@H]1NC(=O)[C@@H](CC(=O)O)NC(=O)[C@H](CC(=O)O)NC(=O)CNC(=O)[C@H](CCCNC(=N)N)NC(=O)CNC(=O)[C@H](N)CSSC[C@H](C(N)=O)NC1=O [LXW7, cGRGDdvc] (H-[dC]GRGD[dD][dV][dC]-NH2; disulfide 1-8)",binding with αvβ3,αvβ3,strong positive binding; also recorded: strongly bound
same,binding with α4,α4,no binding
same,binding with α1,α1,no binding; also recorded: not at all
same,binding with α6,α6,no binding; also recorded: not at all
same,IC50,αvβ3 integrin [1],590 nM
same,binding with αIIbβ3,αIIbβ3,weak cross-reaction; also recorded: weakly
same,"liver uptake, ex vivo imaging",U-87 MG xenograft,low
same,"tumor uptake, ex vivo imaging",U-87 MG xenograft,high
same,binding with α9,α9,no binding; also recorded: not at all
same,binding to U-87 MG cells in presence of anti-αvβ3 antibody (LM609),αvβ3 integrin [2]; [6],markedly blocked
same,Bmax (A.U),αvβ3 integrin [2]; U-87 MG,86 ± 4 A.U
same,Kd,αvβ3 integrin [2]; U-87 MG,72 ± 15 nM
same,binding with α3,α3,no binding; also recorded: not at all
same,Bmax (A.U),αvβ3 integrin [3],1394 ± 57 A.U
same,Kd,αvβ3 integrin [3],76 ± 10 nM
same,binding with α5β1 (α5),α5β1,no binding; also recorded: not at all
same,binding to A375M cells in presence of anti-αvβ3 antibody (LM609),αvβ3 integrin [4]; [6],markedly blocked
same,Bmax (A.U),αvβ3 integrin [4]; A375M,71 ± 4 A.U
same,Kd,αvβ3 integrin [4]; A375M,89 ± 8 nM
same,binding with α2,α2,no binding; also recorded: not at all
same,"binding strength to αvβ3 integrin, biotinylated versus non-biotinylated, in words",αvβ3 integrin [5],near identical binding strength
same,IC50,"αvβ3 integrin [5]; LXW1-8: inhibition of binding of FITC-Echistatin against αvβ3-K562, class symbols, read-out: IC50",< 1000 nM
